# Results as given in ChEMBL document CHEMBL5316276, “Discovery of the First Lactate Dehydrogenase Proteolysis Targeting Chimera Degrader for the Treatment of Pancreatic Cancer” (J Med Chem, 2023).
# Calls of active or inactive are those of the source. The rule behind the calls is not given here.
# Columns and labels:
# [1] = target: T1, von Hippel-Lindau disease tumor suppressor/L-lactate dehydrogenase A chain (Homo sapiens) (UniProt P00338+P40337); assay: Protac activity at VHL/LDHA in human BXPC-3 cells assessed as induction of LDHA degradation at 0.3 to 3 uM incubated for 24 hrs by Western blotting analysis; type: cell-based; conditions: dose 0.3-3 µM
# [2] = tested on: BXPC-3; assay: Antiproliferative activity against human BXPC-3 cells assessed as cell growth inhibition incubated for 72 hrs by WST-8 assay; type: functional, cell-based
# [3] = tested on: PANC-1; assay: Antiproliferative activity against human PANC-1 cells assessed as cell growth inhibition incubated for 72 hrs by WST-8 assay; type: functional
# [4] = target: T1, von Hippel-Lindau disease tumor suppressor/L-lactate dehydrogenase A chain (Homo sapiens); assay: Protac activity at VHL E3 ligase/LDHA in human MIA PaCa-2 cells assessed as induction of LDHA degradation at 0.3 to 3 uM incubated for 24 hrs by Western blotting analysis; type: cell-based; conditions: dose 0.3-3 µM
# [5] = tested on: MIA PaCa-2; assay: Antiproliferative activity against human MIA PaCa-2 cells assessed as cell growth inhibition incubated for 72 hrs by WST-8 assay; type: functional
# [6] = target: T1, von Hippel-Lindau disease tumor suppressor/L-lactate dehydrogenase A chain (Homo sapiens); assay: Protac activity at VHL E3 ligase/LDHA in human PANC-1 cells assessed as induction of LDHA degradation at 10 uM incubated for 48 hrs by Western blotting analysis; type: cell-based
# [7] = target: T2, L-lactate dehydrogenase A chain (Homo sapiens, UniProt P00338); assay: Inhibition of human LDHA
# [8] = target: T3, L-lactate dehydrogenase B chain (Homo sapiens, UniProt P07195); assay: Inhibition of human LDHB
# [9] = target: T3, L-lactate dehydrogenase B chain; assay: Inhibition of recombinant human LDHB
# [10] = target: T2, L-lactate dehydrogenase A chain; assay: Inhibition of recombinant human LDHA
smiles,measurement,setting,value
NS(=O)(=O)c1ccc(Cc2c(-c3cccc(-c4ccccc4)c3)nn(-c3nc(C(=O)O)cs3)c2CC2CC2)cc1,Activity,[1],inactive
same,inhibition,[2],inactive
same,GI50,[3],> 30000 nM
same,Activity,[4],inactive
same,GI50,[5],> 30000 nM
Cc1ncsc1-c1ccc(CNC(=O)[C@@H]2C[C@@H](O)CN2C(=O)[C@@H](NC(=O)CCCCCC(=O)NCCCCC#Cc2cccc(-c3nn(-c4nc(C(=O)O)cs4)c(CC4CC4)c3Cc3ccc(S(N)(=O)=O)cc3)c2)C(C)(C)C)cc1,Activity,[6],Active
Cc1ncsc1-c1ccc(CNC(=O)[C@@H]2C[C@@H](O)CN2C(=O)[C@@H](NC(=O)CCCCC(=O)NCCCCC#Cc2cccc(-c3nn(-c4nc(C(=O)O)cs4)c(CC4CC4)c3Cc3ccc(S(N)(=O)=O)cc3)c2)C(C)(C)C)cc1,Activity,[6],Active
Cc1ccc(C#Cc2cccc(-c3nn(-c4nc(C(=O)O)cs4)c(CC4CC4)c3Cc3ccc(S(N)(=O)=O)c(F)c3)c2)s1,IC50,[7],3 nM
same,IC50,[8],5 nM
Cc1ncsc1-c1ccc(CNC(=O)[C@@H]2C[C@@H](OCc3ccccc3)CN2C(=O)[C@@H](NC(=O)CCCCCCCCCCCC(=O)NCCCCC#Cc2cccc(-c3nn(-c4nc(C(=O)O)cs4)c(CC4CC4)c3Cc3ccc(S(N)(=O)=O)cc3)c2)C(C)(C)C)cc1,IC50,[9],43 nM
same,IC50,[10],2.6 nM
Cc1ncsc1-c1ccc(CNC(=O)[C@@H]2C[C@@H](O)CN2C(=O)[C@@H](NC(=O)CCCCCCC(=O)NCCCCC#Cc2cccc(-c3nn(-c4nc(C(=O)O)cs4)c(CC4CC4)c3Cc3ccc(S(N)(=O)=O)cc3)c2)C(C)(C)C)cc1,Activity,[6],Active
